{"source": "PubChem BioAssay AID1648", "about": "(Sanford-Burnham Center for Chemical Genomics, 2009)", "note": "The source made the active and inactive calls. How the calls were made is not given here.", "data": [{"target": "Serine/threonine-protein kinase mTOR (Homo sapiens) (UniProt P42345)", "sequence (P42345 2015-2114)": "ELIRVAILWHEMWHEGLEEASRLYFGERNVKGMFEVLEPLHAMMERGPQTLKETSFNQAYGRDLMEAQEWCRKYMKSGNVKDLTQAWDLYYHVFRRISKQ", "assay": "mTOR FRB domain ligand binding – biophysical, NMR (AID 1648)", "conditions": "NMR binding to FRB domain, chemical shift", "values": [{"smiles": "CCC(C)C(=O)OC1[C@@H]2CC3=C4CC(=O)O[C@@H](c5ccoc5)[C@]4(C)CCC3C(C)(C2=O)[C@@H](CC(=O)OC)C1(C)C", "note": "(stereo not given in full)", "Kd": "> 4 mM (inactive)"}, {"smiles": "CC(=O)c1ccc(NC(=S)N2CCC(O)CC2)cc1", "Kd": "> 4 mM (inactive)"}, {"smiles": "CCn1cnc(C(=O)NC)c1C(=O)NC", "Kd": "> 4 mM (inactive)"}, {"smiles": "O=C1CCNc2ccccc2N1", "Kd": "> 4 mM (inactive)"}, {"smiles": "Cc1cc2cc(N)ccc2[nH]1", "Kd": "> 4 mM (inactive)"}, {"smiles": "Cc1csc(SCC(=O)N2CCCC2)n1", "Kd": "> 4 mM (inactive)"}, {"smiles": "NC(=O)c1cc(Cl)c(C(N)=O)cc1Cl", "Kd": "> 4 mM (inactive)"}, {"smiles": "O=C1NC(=S)NC(=O)C1=Cc1cccs1", "Kd": "> 4 mM (inactive)"}, {"smiles": "OCc1ccc(Oc2ccccc2)nc1", "Kd": "> 4 mM (inactive)"}, {"smiles": "Cc1nn2c(nc1=O)SCC2(O)c1ccccc1", "note": "(stereo not given)", "Kd": "> 4 mM (inactive)"}, {"smiles": "CC(=O)NC1C(=O)Nc2c(C)cc(C)cc21", "note": "(stereo not given)", "Kd": "> 4 mM (inactive)"}, {"smiles": "NC(=S)CN1CCCC1=O", "Kd": "> 4 mM (inactive)"}, {"smiles": "CN(C)C(=O)CCNS(=O)(=O)c1ccccc1", "Kd": "> 4 mM (inactive)"}, {"smiles": "O=C(c1ccncc1)N1CCN(C(=O)c2ccco2)CC1", "Kd": "> 4 mM (inactive)"}, {"smiles": "Nc1ccccc1C(=O)CC(N)C(=O)O", "note": "(stereo not given)", "Kd": "> 4 mM (inactive)"}, {"smiles": "Cc1ccc(C(=O)N2CC(=O)NC(=O)C2)cc1", "Kd": "> 4 mM (inactive)"}, {"smiles": "CCOC(=O)c1c(C)nc2ncccn12", "Kd": "> 4 mM (inactive)"}, {"smiles": "CCOC(=O)c1csc(N)n1", "Kd": "> 4 mM (inactive)"}, {"smiles": "c1ccc(Cn2c(Nn3cnnc3)nc3ccccc32)cc1", "Kd": "> 4 mM (inactive)"}, {"smiles": "NC(=O)c1cc(N)cc(C(N)=O)c1", "Kd": "> 4 mM (inactive)"}, {"smiles": "CN(C)C(=O)CSc1nc2ccccc2c(=O)[nH]1", "Kd": "> 4 mM (inactive)"}, {"smiles": "CC(=O)OC1CC[C@@]2(C)C(CCC3C2CC[C@]2(C)C(C4=CC(=O)OC4)C(OC(C)=O)CC32O)C1", "note": "(stereo not given in full)", "Kd": "> 4 mM (inactive)"}, {"smiles": "CN(C)S(=O)(=O)c1ccc(NC=O)cc1", "Kd": "> 4 mM (inactive)"}, {"smiles": "O=C(/C(=N\\O)n1cncn1)c1ccccc1Cl", "Kd": "> 4 mM (inactive)"}, {"smiles": "O=C(NC1CC1)c1ccccc1[N+](=O)[O-]", "Kd": "> 4 mM (inactive)"}, {"smiles": "Cc1c(-c2ccccc2)[n+](=O)c(-c2ccco2)c(C)n1[O-]", "Kd": "> 4 mM (inactive)"}, {"smiles": "Nc1ccc2sccc2c1", "Kd": "> 4 mM (inactive)"}, {"smiles": "S=C(CN1CCCC1=S)N1CCOCC1", "Kd": "> 4 mM (inactive)"}, {"smiles": "CCCS(=O)(=O)N1CCN(c2ccccc2F)CC1", "Kd": "> 4 mM (inactive)"}, {"smiles": "Cc1cc2c(N)cccc2nn1", "Kd": "> 4 mM (inactive)"}, {"smiles": "C[n+]1ccc(C(=O)[O-])cc1", "Kd": "> 4 mM (inactive)"}, {"smiles": "Cc1nc2ccccc2c2c1C(=O)N(C)C2=O", "Kd": "> 4 mM (inactive)"}, {"smiles": "Cc1ccc(-n2cnnn2)c2cccnc12", "Kd": "> 4 mM (inactive)"}, {"smiles": "CN(C)S(=O)(=O)Nc1ccc(Br)cc1F", "Kd": "> 4 mM (inactive)"}, {"smiles": "Cc1cc(=O)n(C(N)=S)[nH]1", "Kd": "> 4 mM (inactive)"}, {"smiles": "COc1ccc(N/C(N)=N\\c2nc(C)cc(C)n2)cc1", "Kd": "> 4 mM (inactive)"}, {"smiles": "Cn1c(C(=O)O)ccc1S(N)(=O)=O", "Kd": "> 4 mM (inactive)"}, {"smiles": "Cc1cc(C)cc(C(=O)N2CCC(C(N)=O)CC2)c1", "Kd": "> 4 mM (inactive)"}, {"smiles": "O=C1C2C3CCC(O3)C2C(=O)N1c1ccccc1", "note": "(stereo not given)", "Kd": "> 4 mM (inactive)"}, {"smiles": "O=C(NC1CCS(=O)(=O)C1)c1cccs1", "note": "(stereo not given)", "Kd": "> 4 mM (inactive)"}, {"smiles": "O=P1(O)c2ccccc2Nc2ccccc21", "Kd": "> 4 mM (inactive)"}, {"smiles": "CCNC(=S)Nc1c(C)n(C)n(-c2ccccc2)c1=O", "Kd": "> 4 mM (inactive)"}, {"smiles": "CN(C)N1C(=O)C2C3C=CC(O3)C2C1=O", "note": "(stereo not given)", "Kd": "> 4 mM (inactive)"}, {"smiles": "CCNC(CC(=O)Nc1ccc(O)cc1)C(=O)O", "note": "(stereo not given)", "Kd": "> 4 mM (inactive)"}, {"smiles": "NC(=O)CC1NC(=O)c2ccccc21", "note": "(stereo not given)", "Kd": "> 4 mM (inactive)"}, {"smiles": "O=C(Nc1cnc2ccccn2c1=O)c1ccc(F)cc1", "Kd": "> 4 mM (inactive)"}, {"smiles": "O=C1C=C(Nc2ccc(O)cc2)c2ccccc2C1=O", "Kd": "> 4 mM (inactive)"}, {"smiles": "S=C(c1ccc2c(c1)OCO2)N1CCCC1", "Kd": "> 4 mM (inactive)"}, {"smiles": "NC1=NC(=O)C(Cc2cccc([N+](=O)[O-])c2)S1", "note": "(stereo not given)", "Kd": "> 4 mM (inactive)"}, {"smiles": "Cc1nc2ccccc2c(=O)n1/N=C/c1ccco1", "Kd": "> 4 mM (inactive)"}, {"smiles": "CC1(NC(=O)NCc2ccccc2)CCS(=O)(=O)C1", "note": "(stereo not given)", "Kd": "> 4 mM (inactive)"}, {"smiles": "Cc1ccc(C)c(S(=O)(=O)NCc2cccnc2)c1", "Kd": "> 4 mM (inactive)"}, {"smiles": "COc1ccc(C(C)=O)c(OC)c1", "Kd": "> 4 mM (inactive)"}, {"smiles": "c1cnc(N2CCSCC2)nc1", "Kd": "> 4 mM (inactive)"}, {"smiles": "Cc1nnc(SCC(N)=O)c2ccccc12", "Kd": "> 4 mM (inactive)"}, {"smiles": "CN1CCN(C(=O)c2ccco2)CC1", "Kd": "> 4 mM (inactive)"}, {"smiles": "CC(=O)OC1CCC2(C)C3CC(=O)C4(C)C(CC5OC6(CCC(C)CO6)[C@@H](C)C54)C3CC[C@H]2C1", "note": "(stereo not given in full)", "Kd": "> 4 mM (inactive)"}, {"smiles": "O=Cc1c(N2CCOCC2)nc2ccccn2c1=O", "Kd": "> 4 mM (inactive)"}, {"smiles": "N[C@@H](Cc1cc(I)c(Oc2cc(I)c(O)c(I)c2)c(I)c1)C(=O)O", "Kd": "> 4 mM (inactive)"}, {"smiles": "CC1(C)CC[C@]2(C)CC[C@]3(C)C(=CCC4[C@@]5(C)CC[C@H](O)C(C)(C)C5CC[C@]43C)C2C1", "note": "(stereo not given in full)", "Kd": "> 4 mM (inactive)"}]}]}
